Earlier results, collected in US20230372315A1, “Liquid-State Pharmaceutical Composition Exhibiting Excellent Preservative Effectiveness” (ISHIHARA SANGYO KAISHA, LTD., priority 2020, published 2023).

Tests used:
[1] = beyond pH8
[2] = water having pH5 or less

solubility in water [2]	Compound	antibacterial activity [1]
	OCc1ccccc1 [Benzyl alcohol]	virtually no antibacterial activity
virtually not dissolved	CCS(=O)(=O)Nc1ncc(C(F)(F)F)cc1NC(=O)C1CCCCC1 [N-(2-ethylsulfonylamino-5-trifluoromethyl-3-pyridyl)cyclohexanecarboxamide]	
